# Assay results published in ChEMBL document CHEMBL3885861, “Open TG-GATES”.
# Organism: Rattus norvegicus
# Experiment: Open TG-GATES - Regimen: Single
# Format: toxicity, organism-based, Sprague-Dawley
# Design: regimen Single, gender Male, age 6 weeks
# Settings: in vivo, po, 0 mg/kg, route gavage, dose level Control; for APTT / Bas / Eos / Fbg / Hb / Ht / Lym / MCH / MCHC / MCV / Mono / Neu / PT / Plat / RBC / Ret / WBC: tissue Blood; for KIDNEY_L / KIDNEY_R / KIDNEY_TOTAL: tissue Kidney; for LIVER: tissue Liver; for A/G / ALP / ALT / AST / BUN / CRE / Ca / Cl / DBIL / GLC / IP / K / LDH / Na / PL / RALB / TBIL / TC / TG / TP / gamma-GTP: tissue Plasma
smiles,measurement,setting,value
Cn1cnc([N+](=O)[O-])c1Sc1ncnc2nc[nH]c12 [AZATHIOPRINE],TERMINAL_BW,3 h,189.8 g
same,APTT,3 h,23.1 s
same,Bas,3 h,0%
same,Eos,3 h,1%
same,Fbg,3 h,288.2 mg/dL
same,Hb,3 h,13.4 g/dL
same,Ht,3 h,39.3%
same,Lym,3 h,78.6%
same,MCH,3 h,21.9 pg
same,MCHC,3 h,34%
same,MCV,3 h,64.5 fL
same,Mono,3 h,2.4%
same,Neu,3 h,17.2%
same,PT,3 h,15.7 s
same,Plat,3 h,117.7 x10_4/uL
same,RBC,3 h,610.8 x10_4/ul
same,Ret,3 h,9.3%
same,WBC,3 h,98.5 x10_2/uL
same,KIDNEY_L,3 h,0.9 g
same,KIDNEY_R,3 h,0.9 g
same,KIDNEY_TOTAL,3 h,1.7 g
same,LIVER,3 h,8.6 g
same,A/G,3 h,1.1
same,ALP,3 h,1465.6 IU/L
same,ALT,3 h,46.8 IU/L
same,AST,3 h,78.4 IU/L
same,BUN,3 h,11.8 mg/dL
same,CRE,3 h,0.2 mg/dL
same,Ca,3 h,10.3 mg/dL
same,Cl,3 h,107 meq/L
same,DBIL,3 h,0 mg/dL
same,GLC,3 h,175.4 mg/dL
same,IP,3 h,8.2 mg/dL
same,K,3 h,3.9 meq/L
same,LDH,3 h,217.6 IU/L
same,Na,3 h,142.6 meq/L
same,PL,3 h,129.6 mg/dL
same,RALB,3 h,2.9 g/dL
same,TBIL,3 h,0.006 mg/dL
same,TC,3 h,79 mg/dL
same,TG,3 h,46 mg/dL
same,TP,3 h,5.5 g/dL
same,gamma-GTP,3 h,1.2 IU/L
same,TERMINAL_BW,6 h,186.3 g
same,APTT,6 h,21.1 s
same,Bas,6 h,0%
same,Eos,6 h,1%
same,Fbg,6 h,307.4 mg/dL
same,Hb,6 h,13.2 g/dL
same,Ht,6 h,39.3%
same,Lym,6 h,73.8%
same,MCH,6 h,21.6 pg
same,MCHC,6 h,33.7%
same,MCV,6 h,64.1 fL
same,Mono,6 h,2.4%
same,Neu,6 h,22%
same,PT,6 h,15.7 s
same,Plat,6 h,124.9 x10_4/uL
same,RBC,6 h,612.4 x10_4/ul
same,Ret,6 h,9.5%
same,WBC,6 h,66 x10_2/uL
same,KIDNEY_L,6 h,0.9 g
same,KIDNEY_R,6 h,0.9 g
same,KIDNEY_TOTAL,6 h,1.7 g
same,LIVER,6 h,8.4 g
same,A/G,6 h,1.3
same,ALP,6 h,1451.6 IU/L
same,ALT,6 h,42.8 IU/L
same,AST,6 h,70.8 IU/L
same,BUN,6 h,11.6 mg/dL
same,CRE,6 h,0.1 mg/dL
same,Ca,6 h,10.4 mg/dL
same,Cl,6 h,106.4 meq/L
same,DBIL,6 h,0.002 mg/dL
same,GLC,6 h,183.8 mg/dL
same,IP,6 h,8.8 mg/dL
same,K,6 h,4.2 meq/L
same,LDH,6 h,254.6 IU/L
same,Na,6 h,141.6 meq/L
same,PL,6 h,137.8 mg/dL
same,RALB,6 h,3.1 g/dL
same,TBIL,6 h,0.014 mg/dL
same,TC,6 h,77.6 mg/dL
same,TG,6 h,66.8 mg/dL
same,TP,6 h,5.5 g/dL
same,gamma-GTP,6 h,1 IU/L
same,TERMINAL_BW,9 h,190.4 g
same,APTT,9 h,20.8 s
same,Bas,9 h,0%
same,Eos,9 h,0.6%
same,Fbg,9 h,301.8 mg/dL
same,Hb,9 h,12.6 g/dL
same,Ht,9 h,37.7%
same,Lym,9 h,79.6%
same,MCH,9 h,21.6 pg
same,MCHC,9 h,33.2%
same,MCV,9 h,65 fL
same,Mono,9 h,2%
same,Neu,9 h,16.2%
same,PT,9 h,15.2 s
same,Plat,9 h,127.2 x10_4/uL
same,RBC,9 h,582 x10_4/ul
same,Ret,9 h,9.9%
same,WBC,9 h,93.5 x10_2/uL
same,KIDNEY_L,9 h,0.9 g
same,KIDNEY_R,9 h,0.9 g
same,KIDNEY_TOTAL,9 h,1.9 g
same,LIVER,9 h,8.2 g
same,A/G,9 h,1.3
same,ALP,9 h,1520.4 IU/L
same,ALT,9 h,38 IU/L
same,AST,9 h,72.8 IU/L
same,BUN,9 h,10.6 mg/dL
same,CRE,9 h,0.1 mg/dL
same,Ca,9 h,10.5 mg/dL
same,Cl,9 h,105.6 meq/L
same,DBIL,9 h,0.004 mg/dL
same,GLC,9 h,176.2 mg/dL
same,IP,9 h,9.5 mg/dL
same,K,9 h,4.3 meq/L
same,LDH,9 h,182.4 IU/L
same,Na,9 h,141.2 meq/L
same,PL,9 h,125.2 mg/dL
same,RALB,9 h,3 g/dL
same,TBIL,9 h,0.016 mg/dL
same,TC,9 h,76.4 mg/dL
same,TG,9 h,46.2 mg/dL
same,TP,9 h,5.3 g/dL
same,gamma-GTP,9 h,1 IU/L
same,TERMINAL_BW,24 h,202.7 g
same,APTT,24 h,21.7 s
same,Bas,24 h,0%
same,Eos,24 h,0.6%
same,Fbg,24 h,308.2 mg/dL
same,Hb,24 h,13.5 g/dL
same,Ht,24 h,39.6%
same,Lym,24 h,77.4%
same,MCH,24 h,22.2 pg
same,MCHC,24 h,34.1%
same,MCV,24 h,65.2 fL
same,Mono,24 h,2%
same,Neu,24 h,18.6%
same,PT,24 h,16.2 s
same,Plat,24 h,117.2 x10_4/uL
same,RBC,24 h,607 x10_4/ul
same,Ret,24 h,8.8%
same,WBC,24 h,97.8 x10_2/uL
same,KIDNEY_L,24 h,0.9 g
same,KIDNEY_R,24 h,0.9 g
same,KIDNEY_TOTAL,24 h,1.7 g
same,LIVER,24 h,9.6 g
same,A/G,24 h,1.2
same,ALP,24 h,1642 IU/L
same,ALT,24 h,46 IU/L
same,AST,24 h,74.6 IU/L
same,BUN,24 h,16.8 mg/dL
same,CRE,24 h,0.1 mg/dL
same,Ca,24 h,11 mg/dL
same,Cl,24 h,106.8 meq/L
same,DBIL,24 h,0 mg/dL
same,GLC,24 h,185.6 mg/dL
same,IP,24 h,7 mg/dL
same,K,24 h,3.9 meq/L
same,LDH,24 h,223.2 IU/L
same,Na,24 h,143.2 meq/L
same,PL,24 h,156.8 mg/dL
same,RALB,24 h,3.1 g/dL
same,TBIL,24 h,0.006 mg/dL
same,TC,24 h,86.8 mg/dL
same,TG,24 h,102.8 mg/dL
same,TP,24 h,5.6 g/dL
same,gamma-GTP,24 h,1 IU/L
